Read-outs that look alike come from different tables or passages of the source.
Tested on: P. falciparum 3D7 gametocytes
Experiment: alamarBlue gametocyte viability assay, strain 3D7
Assay type: cell-based, Plasmodium falciparum
Settings: for Max Resp: DMSO set at 0%, 100 nM epoxomicin set at -100%; call rule not given here
[1] = Malaria Box, stages III-V 3D7 gametocytes
[2] = Malaria Box, stages III-V 3D7 gametocytes, 11 concentrations, 1:3 dilution
[3] = Malaria Box, stages III-V 3D7 gametocytes, 11 concentrations, 1:3 dilution, read-out: IC50

SMILES | Max Resp (Malaria Box) | Curve Class [1] | IC50 [2] | IC50 [3] | reduction of gametocyte viability (Malaria Box screen) | IC50 (P. falciparum 3D7 gametocytes, mean of at least 3 independent experiments, read-out: Gametocyte IC50)
CCCC(c1nnnn1C1CCCCC1)N1CCN(C(=O)c2ccco2)CC1.Cl (centres unmarked) [MMV666093] | -10% | 4 | Inactive |  |  | 
CCCc1c(C)nc2ccc(Br)cc2c1O [MMV666095] | 28% | 4 | Inactive |  |  | 
COc1ccc(C2=C(c3ccc(OC)cc3)C3(c4ccccc4)C(=O)C2(c2ccccc2)C2C(=O)N(c4ccc(C)cc4)C(=O)C23)cc1 (centres unmarked) [MMV666101] | 1% | 4 | Inactive |  |  | 
CN(C)c1ccc(-c2nc3ccc(N)cc3[nH]2)cc1 [MMV666102] | -75% | -2.2 |  | 29.6 µM |  | 
CCn1c(SCC(=O)Nc2cc(C(F)(F)F)ccc2Cl)nc2ccccc2c1=O [MMV666103] | -11% | 4 | Inactive |  |  | 
COCCN(C(=O)Cc1cccs1)C(C(=O)NCc1ccc(OC)cc1)c1ccc(C(C)C)cc1 (centres unmarked) [MMV666105] | -42% | -2.2 | Inactive |  |  | 
O=C(NC1CCCCC1)C(c1cccs1)N(CCc1ccccc1)C(=O)c1ccco1 (centres unmarked) [MMV666106] | -29% | 4 | Inactive |  |  | 
O=C(CCc1ccco1)NC1CCN(CC2(c3ccc(Cl)cc3)CCC2)CC1 [MMV666108] | -51% | -2.2 | Inactive |  |  | 
CCOC(=O)C1(Cc2ccccc2)CCN(Cc2cccc(OC)c2O)CC1 [MMV666109] | -58% | -1.2 |  | 5.26 µM |  | 
C=C(C)CCC(C)N1CCC(N2CCC(C(=O)NCCc3ccccc3)CC2)CC1 (centres unmarked) [MMV666110] | -73% | -2.2 |  | 29.6 µM |  | 
Oc1ccccc1CN1CCC2(CCCN(Cc3ccccc3F)C2)C1 (centres unmarked) [MMV666116] | -46% | -1.2 |  | 0.662 µM |  | 
CC(C)(C)c1ccc(C(=O)Nc2c3c(nn2-c2cccc(Cl)c2)CSC3)cc1 [MMV666123] | -6% | 4 | Inactive |  |  | 
CC(=O)c1ccc(NC(=O)CSc2nc(-c3ccccc3Cl)ns2)cc1 [MMV666124] | -33% | -3 | Inactive |  |  | 
CC1=C(CC(=O)c2cccc([N+](=O)[O-])c2)C(=O)c2ccccc2C1=O [MMV666125] | -116% | -1.1 |  | 0.833 µM | > 75% | < 1 µM
CSC1=NC(=Nc2c(C)cccc2C)C2(CCC(C(C)(C)C)CC2)N1c1ccc(Cl)cc1 (centres unmarked) [MMV666596] | 14% | 4 | Inactive |  |  | 
CCCCCCc1cc2cc(-c3nc4ccccc4[nH]3)c(=Nc3ccccc3C)oc2cc1O [MMV666597] | -27% | -1.4 |  | 2.09 µM |  | 
O=c1nc(C=Cc2ccc(Br)cc2)oc2ccccc12 [MMV666599] | 4% | 4 | Inactive |  |  | 
CCOC(=O)c1c(C)n(-c2ccc(Cl)cc2)c2ccc(OC(=O)C=Cc3ccccc3)cc12 [MMV666600] | 2% | 4 | Inactive |  |  | 
CCOC(=O)C1=C(c2ccccc2)N=c2sc(=Cc3cc(C)n(-c4ccc(F)cc4)c3C)c(=O)n2C1c1cccc(OC)c1OC (centres unmarked) [MMV666601] | -26% | 4 | Inactive |  |  | 
CCOC(=O)C1=C(C)N=c2sc(=Cc3ccccc3O)c(=O)n2C1c1ccc(OC)c2ccccc12 (centres unmarked) [MMV666604] | -68% | -1.2 |  | 7.43 µM |  | 
O=[N+]([O-])c1ccc(C=NNc2nc3ccccc3[nH]2)cc1 [MMV666607] | -57% | -2.2 |  | 29.6 µM |  | 
COc1ccccc1C(=O)ON=C(N)Cc1cccc2ccccc12 [MMV666686] | -50% | -2.2 | Inactive |  |  | 

Reference: paper PMC3894558, “Chemical signatures and new drug targets for gametocytocidal drug development” (Scientific Reports, 2014)
